Experiments:
[1] = target: Proto-oncogene tyrosine-protein kinase Src (Homo sapiens, UniProt P12931); test: Binding affinity against Src SH2 domain; set-up: species or system Escherichia coli
[2] = target: Tyrosine-protein kinase SYK (Homo sapiens, UniProt P43405); test: Binding affinity against Syk protein tyrosine kinase SH2 domain; set-up: species or system Escherichia coli

Sequence of Proto-oncogene tyrosine-protein kinase Src (P12931 2-536 limits assumed): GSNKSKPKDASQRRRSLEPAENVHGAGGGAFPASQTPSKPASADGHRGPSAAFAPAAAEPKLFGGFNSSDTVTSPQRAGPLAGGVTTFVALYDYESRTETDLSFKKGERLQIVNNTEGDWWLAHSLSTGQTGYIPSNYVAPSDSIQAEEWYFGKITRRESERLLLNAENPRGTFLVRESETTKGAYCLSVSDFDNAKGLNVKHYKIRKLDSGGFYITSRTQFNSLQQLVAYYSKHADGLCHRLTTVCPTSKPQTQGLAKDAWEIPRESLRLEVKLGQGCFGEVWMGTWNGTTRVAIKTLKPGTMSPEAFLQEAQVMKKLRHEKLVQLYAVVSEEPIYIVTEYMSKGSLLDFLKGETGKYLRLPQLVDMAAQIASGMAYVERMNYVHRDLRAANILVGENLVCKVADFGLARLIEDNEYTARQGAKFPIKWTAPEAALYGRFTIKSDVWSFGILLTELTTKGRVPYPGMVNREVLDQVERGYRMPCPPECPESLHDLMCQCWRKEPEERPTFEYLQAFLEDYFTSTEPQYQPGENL

IC50 [1] [µM] | IC50 [2] [µM] | SMILES
37 | 452 | CC(=O)N[C@@H](Cc1ccc(OP(=O)(O)O)cc1)C(=O)N[C@@H](CO)c1nc(Cc2ccc(I)cc2)no1
20 |  | CC(=O)N[C@@H](CC(N)=O)C(=O)N[C@@H](CCC(N)=O)C(=O)N[C@@H](CC(C)C)C(=O)N[C@@H](Cc1ccc(OP(=O)(O)O)cc1)C(=O)N[C@@H](CC(N)=O)C(=O)N[C@@H](CCC(=O)O)C(=O)N[C@@H](CC(C)C)C(=O)N[C@@H](CC(N)=O)C(=O)N[C@@H](CC(C)C)C(=O)NCC(=O)N[C@@H](CCCN=C(N)N)C(=O)N[C@@H](CCCN=C(N)N)C(=O)N[C@@H](CCC(=O)O)C(=O)N[C@@H](CCC(=O)O)C(=O)N[C@@H](Cc1ccc(OP(=O)(O)O)cc1)C(=O)N[C@@H](CC(=O)O)C(=O)N[C@H](C(=O)N[C@@H](CC(C)C)C(=O)N[C@@H](CC(=O)O)C(N)=O)C(C)C
92 | > 500 | CC(=O)N[C@@H](Cc1ccc(OP(=O)(O)O)cc1)C(=O)N[C@@H](Cc1c[nH]c2ccccc12)c1nc(Cc2ccc(C(F)(F)F)cc2)no1
143 | > 500 | C[C@H](NC(=O)[C@H](Cc1ccc(OP(=O)(O)O)cc1)NC(=O)Cc1cccs1)c1nc(Cc2ccc(C(F)(F)F)cc2)no1
98 | > 500 | CC[C@H](NC(=O)[C@H](Cc1ccc(OP(=O)(O)O)cc1)NC(C)=O)c1nc(Cc2ccc(C(F)(F)F)cc2)no1
96 | > 500 | CC(=O)N[C@@H](Cc1ccc(OP(=O)(O)O)cc1)C(=O)N[C@@H](CCC(N)=O)c1nc(Cc2ccc(C(C)C)cc2)no1
132 | > 500 | CC(=O)N[C@@H](Cc1ccc(OP(=O)(O)O)cc1)C(=O)N[C@@H](CO)c1nc(Cc2ccc(F)cc2)no1
66 | > 500 | CC(=O)N[C@@H](Cc1ccc(OP(=O)(O)O)cc1)C(=O)N[C@@H](C)c1nc(Cc2ccc(Cl)cc2)no1
65 | > 500 | CC(=O)N[C@@H](Cc1ccc(OP(=O)(O)O)cc1)C(=O)N[C@@H](C)c1nc(Cc2ccc(C)cc2)no1
123 | > 500 | C[C@H](NC(=O)[C@H](Cc1ccc(OP(=O)(O)O)cc1)NC(=O)Cc1ccccc1)c1nc(Cc2ccc(C(F)(F)F)cc2)no1
87 | > 500 | COc1ccc(CC(=O)N[C@@H](Cc2ccc(OP(=O)(O)O)cc2)C(=O)N[C@@H](C)c2nc(Cc3ccc(C(F)(F)F)cc3)no2)cc1
32 | > 500 | CC(=O)N[C@@H](Cc1ccc(OP(=O)(O)O)cc1)C(=O)N[C@@H](CO)c1nc(Cc2ccc(Br)cc2)no1
50 | 464 | CC(=O)N[C@@H](Cc1ccc(OP(=O)(O)O)cc1)C(=O)N[C@@H](C)c1nc(Cc2ccc(I)c(Cl)c2)no1
45 | > 500 | CC(=O)N[C@@H](Cc1ccc(OP(=O)(O)O)cc1)C(=O)N[C@@H](C)c1nc(Cc2ccc(Cl)c(Br)c2)no1
135 | > 500 | CC(=O)N[C@@H](Cc1ccc(OP(=O)(O)O)cc1)C(=O)N[C@@H](CCC(N)=O)c1nc(Cc2cccc3ccccc23)no1
49 | 302 | C[C@H](NC(=O)[C@H](Cc1ccc(OP(=O)(O)O)cc1)NC(=O)Cc1ccc2ccccc2c1)c1nc(Cc2ccc(C(F)(F)F)cc2)no1
130 | 397 | C[C@H](NC(=O)[C@H](Cc1ccc(OP(=O)(O)O)cc1)NC(=O)Cc1ccc(F)c(F)c1)c1nc(Cc2ccc(C(F)(F)F)cc2)no1
259 | > 500 | CC(=O)N[C@@H](Cc1ccc(OP(=O)(O)O)cc1)C(=O)N[C@@H](CCC(N)=O)c1nc(Cc2cccc(Cl)c2)no1
39 | > 500 | CC(=O)N[C@@H](Cc1ccc(OP(=O)(O)O)cc1)C(=O)N[C@@H](C)c1nc(Cc2ccc(Br)c(Br)c2)no1
40 | > 500 | CC(=O)N[C@@H](Cc1ccc(OP(=O)(O)O)cc1)C(=O)N[C@@H](C)c1nc(Cc2ccc(I)c(Br)c2)no1
> 500 | > 500 | CC(=O)N[C@@H](Cc1ccc(OP(=O)(O)O)cc1)C(=O)N[C@@H](CC(N)=O)c1nc(Cc2ccc(C(F)(F)F)cc2)no1

— ChEMBL document CHEMBL1132280, “Discovery of potent and selective SH2 inhibitors of the tyrosine kinase ZAP-70” (J Med Chem, 1999)
